Consider two molecules from PMC9564220, “Dipeptidyl peptidase-4 inhibitory potentials of Glycyrrhiza uralensis and its bioactive compounds licochalcone A and licochalcone B: An in silico and in vitro study” (Frontiers in Molecular Biosciences, 2022).

In the assay the target is T1, Dipeptidyl peptidase-4 (DPP-4) (Homo sapiens, UniProt P27487).
T1 construct: gene DPP4
Put plainly: fluorescence DPP-4 inhibitor screening kit (Sigma Aldrich), kinetic mode. It is filed as biochemical.

SMILES strings stand for the structures.

T1 sequence (P27487 whole entry): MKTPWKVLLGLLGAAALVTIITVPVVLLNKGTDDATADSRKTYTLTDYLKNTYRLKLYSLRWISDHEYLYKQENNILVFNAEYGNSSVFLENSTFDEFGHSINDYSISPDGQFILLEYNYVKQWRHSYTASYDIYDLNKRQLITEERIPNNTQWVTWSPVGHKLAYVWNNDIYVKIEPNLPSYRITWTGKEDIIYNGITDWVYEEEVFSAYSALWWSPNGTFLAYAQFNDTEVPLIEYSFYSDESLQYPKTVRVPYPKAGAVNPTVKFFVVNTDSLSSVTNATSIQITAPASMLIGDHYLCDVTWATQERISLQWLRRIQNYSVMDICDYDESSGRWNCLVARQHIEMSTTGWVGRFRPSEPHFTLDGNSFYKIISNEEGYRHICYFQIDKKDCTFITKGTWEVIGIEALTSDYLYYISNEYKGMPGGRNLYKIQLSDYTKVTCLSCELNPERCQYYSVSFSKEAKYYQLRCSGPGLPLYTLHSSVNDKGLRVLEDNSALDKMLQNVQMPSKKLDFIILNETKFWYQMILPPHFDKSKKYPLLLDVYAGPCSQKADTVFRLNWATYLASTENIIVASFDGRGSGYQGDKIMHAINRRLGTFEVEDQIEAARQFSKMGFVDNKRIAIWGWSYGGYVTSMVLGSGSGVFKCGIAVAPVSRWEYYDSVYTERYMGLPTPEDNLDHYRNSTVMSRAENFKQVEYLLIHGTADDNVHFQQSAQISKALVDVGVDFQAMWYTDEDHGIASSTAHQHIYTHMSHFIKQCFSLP

Consider `COc1c(/C=C/C(=O)c2ccc(O)cc2)ccc(O)c1O` [LicB, licochalcone B], for which the IC50 is around 798 µM. As for `C=CC(C)(C)c1cc(/C=C/C(=O)c2ccc(O)cc2)c(OC)cc1O` [LicA, licochalcone A], the figure is around 348 µM.

For orientation: IC50 means the point on the concentration scale where inhibition reaches its midpoint. High values mean weaker potency in that assay, low ones greater potency in that assay.
